In PubChem BioAssay AID248 (DTP/NCI, 2004):
Where “and” joins values, the source holds several entries; their conditions need not be identical. Equal values may be shown once. Toxic doses and inconclusive results are not listed. No stated cut-off is given here; in the data, active means T/C of 150% or more; inactive means T/C below 125%.

Tested on: L1210 leukemia ip in BDF1 mice, survival T/C
Assay: NCI In Vivo Anticancer Drug Screen. Data for tumor model L1210 Leukemia (intraperitoneal) in B6D2F1 (BDF1) mice
Details: endpoint: mean survival time, higher = longer survival
Method in brief: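 Tumor cells were implanted, animals were treated, and survival was followed. The result divides the treated measurement by the vehicle-control measurement.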

[1] = dose: 100.0 mg/kg/injection, schedule: Q01DX009 (ip), vehicle: gum acacia
[2] = dose: 100.0 mg/kg/injection, schedule: Q04DX003 (ip), vehicle: gum acacia
[3] = dose: 200.0 mg/kg/injection, schedule: Q01DX009 (ip), vehicle: gum acacia
[4] = dose: 200.0 mg/kg/injection, schedule: Q04DX003 (ip), vehicle: gum acacia
[5] = dose: 400.0 mg/kg/injection, schedule: Q01DX009 (ip), vehicle: gum acacia
[6] = dose: 400.0 mg/kg/injection, schedule: Q04DX003 (ip), vehicle: gum acacia
[7] = dose: 100.0 mg/kg/injection, schedule: Q01DX001 (ip), vehicle: carboxymethylcellulose (CMC)
[8] = dose: 200.0 mg/kg/injection, schedule: Q01DX001 (ip), vehicle: carboxymethylcellulose (CMC)
[9] = dose: 400.0 mg/kg/injection, schedule: Q01DX001 (ip), vehicle: carboxymethylcellulose (CMC)
[10] = dose: 150.0 mg/kg/injection, schedule: Q01DX001 (ip), vehicle: Klucel (hydroxypropylcellulose) (HPC)
[11] = dose: 100.0 mg/kg/injection, schedule: Q01DX009 (ip), vehicle: Klucel (hydroxypropylcellulose) (HPC)
[12] = dose: 100.0 mg/kg/injection, schedule: Q04DX003 (ip), vehicle: Klucel (hydroxypropylcellulose) (HPC)
[13] = dose: 200.0 mg/kg/injection, schedule: Q01DX009 (ip), vehicle: Klucel (hydroxypropylcellulose) (HPC)
[14] = dose: 200.0 mg/kg/injection, schedule: Q04DX003 (ip), vehicle: Klucel (hydroxypropylcellulose) (HPC)
[15] = dose: 400.0 mg/kg/injection, schedule: Q01DX009 (ip), vehicle: Klucel (hydroxypropylcellulose) (HPC)
[16] = dose: 400.0 mg/kg/injection, schedule: Q04DX003 (ip), vehicle: Klucel (hydroxypropylcellulose) (HPC)
[17] = dose: 100.0 mg/kg/injection, schedule: Q01DX009 (ip), vehicle: saline with Tween-80
[18] = dose: 200.0 mg/kg/injection, schedule: Q01DX009 (ip), vehicle: saline with Tween-80
[19] = dose: 400.0 mg/kg/injection, schedule: Q01DX009 (ip), vehicle: saline with Tween-80
[20] = dose: 100.0 mg/kg/injection, schedule: Q01DX001 (ip), vehicle: saline with Tween-80
[21] = dose: 100.0 mg/kg/injection, schedule: Q04DX002 (ip), vehicle: saline with Tween-80
[22] = dose: 200.0 mg/kg/injection, schedule: Q01DX001 (ip), vehicle: saline with Tween-80
[23] = dose: 200.0 mg/kg/injection, schedule: Q04DX002 (ip), vehicle: saline with Tween-80
[24] = dose: 400.0 mg/kg/injection, schedule: Q01DX001 (ip), vehicle: saline with Tween-80
[25] = dose: 400.0 mg/kg/injection, schedule: Q04DX002 (ip), vehicle: saline with Tween-80
[26] = dose: 100.0 mg/kg/injection, schedule: Q01DX001 (ip), vehicle: saline
[27] = dose: 200.0 mg/kg/injection, schedule: Q01DX001 (ip), vehicle: saline
[28] = dose: 400.0 mg/kg/injection, schedule: Q01DX001 (ip), vehicle: saline

Measured: T/C

CCCCCCCCCCCCCCCCCC(=O)Nc1ccc(O)cc1
inactive: [1] 87 % of control | [2] 88 % of control | [3] 90 % of control | [4] 88 % of control | [5] 90 % of control | [6] 90 % of control

CCOC(=O)c1nn2c(C)nnc2s1
inactive: [7] 98 % of control | [8] 96 % of control | [9] 98 % of control

CCCC1C2=C(C(=O)OC2=O)C2C(CC)CC3=C(C(=O)OC3=O)C12 (stereo not given)
inactive: dose: 12.5 mg/kg/injection, schedule: Q01DX001 (ip), vehicle: Klucel (hydroxypropylcellulose) (HPC) 90 % of control | dose: 25.0 mg/kg/injection, schedule: Q01DX001 (ip), vehicle: Klucel (hydroxypropylcellulose) (HPC) 94 % of control | dose: 50.0 mg/kg/injection, schedule: Q01DX001 (ip), vehicle: Klucel (hydroxypropylcellulose) (HPC) 94 % of control | dose: 56.25 mg/kg/injection, schedule: Q04DX003 (ip), vehicle: Klucel (hydroxypropylcellulose) (HPC) 97 % of control | dose: 100.0 mg/kg/injection, schedule: Q01DX001 (ip), vehicle: Klucel (hydroxypropylcellulose) (HPC) 95 % of control | dose: 112.5 mg/kg/injection, schedule: Q04DX003 (ip), vehicle: Klucel (hydroxypropylcellulose) (HPC) 95 % of control | [10] 89 % of control | dose: 225.0 mg/kg/injection, schedule: Q01DX001 (ip), vehicle: Klucel (hydroxypropylcellulose) (HPC) 97 % of control | dose: 225.0 mg/kg/injection, schedule: Q04DX003 (ip), vehicle: Klucel (hydroxypropylcellulose) (HPC) 94 % of control

COc1ccccc1NC(=O)Nc1ccccc1OC
inactive: [11] 98 % of control | [12] 97 % of control | [13] 104 % of control | [14] 97 % of control | [15] 103 % of control | [16] 94 % of control

CC(=O)Nc1ccc(/C(C#N)=C/c2ccc(N(C)CCC#N)cc2)cc1
inactive: [11] 98 % of control | [13] 100 % of control | [15] 96 % of control

CN(C)C(=S)Sc1nc2ccccc2s1
inactive: [12] 101 % of control | [14] 104 % of control | [16] 101 % of control

O=C1c2ccccc2CC1(Br)Br
inactive: dose: 100.0 mg/kg/injection, schedule: Q04DX003 (ip), vehicle: other 96 % of control | dose: 200.0 mg/kg/injection, schedule: Q04DX003 (ip), vehicle: other 93 % of control

O=C1OC(=O)N2N=CC=CC12 (stereo not given)
inactive: [17] 102 % of control | [18] 100 % of control | [19] 96 % of control

CN(NC(=O)c1ccccc1)c1ccccc1
inactive: dose: 100.0 mg/kg/injection, schedule: Q04DX003 (ip), vehicle: saline with Tween-80 96 % of control | dose: 200.0 mg/kg/injection, schedule: Q04DX003 (ip), vehicle: saline with Tween-80 107 % of control | dose: 400.0 mg/kg/injection, schedule: Q04DX003 (ip), vehicle: saline with Tween-80 105 % of control

CCCCCCCC/C=C\CCCCCCCC(=O)OCC#CCOC(=O)CCCCCCC/C=C/CCCCCCCC
inactive: [20] 94 % of control | [17] 95 % of control and 101 % of control | [21] 97 % of control and 102 % of control | [22] 91 % of control | [18] 93 % of control and 94 % of control | [23] 97 % of control and 104 % of control | [24] 94 % of control | [19] 95 % of control and 97 % of control | [25] 96 % of control and 108 % of control

C/C(=N\Nc1nc2ccccc2o1)c1ccncc1
inactive: dose: 50.0 mg/kg/injection, schedule: Q01DX009 (ip), vehicle: Klucel (hydroxypropylcellulose) (HPC) 105 % of control | [11] 105 % of control | [13] 116 % of control | [15] 108 % of control

CCCCCP(=O)(O)O
inactive: dose: 100.0 mg/kg/injection, schedule: Q04DX002 (ip), vehicle: saline 92 % of control | dose: 200.0 mg/kg/injection, schedule: Q04DX002 (ip), vehicle: saline 99 % of control

CCOC(=O)CCc1c(C)c2cc(C(C)=O)c(O)cc2oc1=O
inactive: [7] 89 % of control | [8] 94 % of control | [9] 103 % of control

CCC(C)N (stereo not given)
inactive: dose: 100.0 mg/kg/injection, schedule: Q04DX003 (ip), vehicle: saline 95 % of control | dose: 200.0 mg/kg/injection, schedule: Q04DX003 (ip), vehicle: saline 95 % of control

CC(=O)c1c(O)cc(C)[nH]c1=O
inactive: [26] 86 % of control | [27] 89 % of control | [28] 86 % of control

O=C(c1ccccc1)C1CCC(Cl)CC1 (stereo not given)
inactive: dose: 100.0 mg/kg/injection, schedule: Q01DX001 (ip), vehicle: other 96 % of control | dose: 200.0 mg/kg/injection, schedule: Q01DX001 (ip), vehicle: other 101 % of control | dose: 400.0 mg/kg/injection, schedule: Q01DX001 (ip), vehicle: other 102 % of control

Cc1cc(C)cc(CCc2cc(C)cc(C)c2)c1
inactive: [20] 95 % of control | [17] 88 % of control | [22] 94 % of control | [18] 95 % of control | [24] 89 % of control | [19] 95 % of control

OC12c3ccccc3C1(c1ccccn1)c1ccccc12 (stereo not given)
inactive: [1] 98 % of control | [2] 98 % of control | [3] 96 % of control | [4] 98 % of control | [5] 100 % of control | [6] 103 % of control

COc1cccc(NC(=S)NCCO)c1
inactive: [12] 103 % of control | [14] 110 % of control | [16] 110 % of control

CCOc1ccc(/C=N/NS(=O)(=O)c2ccccc2)cc1OC
inactive: [17] 94 % of control | dose: 100.0 mg/kg/injection, schedule: Q04DX003 (ip), vehicle: saline sonified 107 % of control | [18] 98 % of control | dose: 200.0 mg/kg/injection, schedule: Q04DX003 (ip), vehicle: saline sonified 86 % of control | [19] 89 % of control | dose: 400.0 mg/kg/injection, schedule: Q04DX003 (ip), vehicle: saline sonified 98 % of control

C=C1c2c(Cl)cccc2C(C)(CC)c2cccc(Cl)c21
inactive: dose: 75.0 mg/kg/injection, schedule: Q01DX001 (ip), vehicle: Klucel (hydroxypropylcellulose) (HPC) 96 % of control | dose: 75.0 mg/kg/injection, schedule: Q01DX009 (ip), vehicle: Klucel (hydroxypropylcellulose) (HPC) 94 % of control | [10] 98 % of control | dose: 150.0 mg/kg/injection, schedule: Q01DX009 (ip), vehicle: Klucel (hydroxypropylcellulose) (HPC) 96 % of control | dose: 300.0 mg/kg/injection, schedule: Q01DX001 (ip), vehicle: Klucel (hydroxypropylcellulose) (HPC) 95 % of control | dose: 300.0 mg/kg/injection, schedule: Q01DX009 (ip), vehicle: Klucel (hydroxypropylcellulose) (HPC) 99 % of control

C[n+]1ccccc1/C=C/c1cccc(O)c1
inactive: dose: 9.38 mg/kg/injection, schedule: Q01DX001 (ip), vehicle: other 103 % of control | dose: 18.75 mg/kg/injection, schedule: Q01DX001 (ip), vehicle: other 100 % of control

CCOC(=O)c1ccc(NC(=S)Nc2ncccc2C)cc1
inactive: [21] 103 % of control | [23] 103 % of control | [25] 95 % of control

Cc1ccc2scc3c4ccccc4nc-3c2c1
inactive: dose: 25.0 mg/kg/injection, schedule: Q01DX009 (ip), vehicle: saline 95 % of control | dose: 50.0 mg/kg/injection, schedule: Q01DX009 (ip), vehicle: saline 95 % of control

C1=CC(c2ccccc2)=C(c2ccccc2)C(c2ccccc2)C(c2ccccc2)=C1 (stereo not given)
inactive: dose: 50.0 mg/kg/injection, schedule: Q01DX001 (ip), vehicle: carboxymethylcellulose (CMC) 94 % of control | [7] 96 % of control | [8] 96 % of control | [9] 89 % of control

N#Cc1c(N)ncn1C1OC(CO)C(O)C1O (stereo not given)
inactive: [26] 96 % of control | [27] 104 % of control | [28] 109 % of control
